# Laboratory results published in patent US10258980B2, “Pure chelation process” (C LAB PHARMA INTERNATIONAL, S.A., priority 2014, dated 2019).
# Assays:
# [1] = equal amounts of chelated copper mixed with water
# [2] = dry powder rubbed on the surface of skin
smiles,measurement,setting,value
O=C(O)c1cccnc1.[Cu] [copper nicotinic acid],time to change to the oxidized blue color,[1],a few minutes
same,"copper content by EDS, dry powder form",dry powder,22.90%
same,copper content by EDS after sample is wetted,wet sample,21.7%
same,change of EDS spectra after wetting,wet versus dry sample,did not change significantly
same,"disappearance from the surface of skin when rubbed, dry powder",[2],disappeared from the surface of the skin
